In test [1] the target is T1, α2B Human Adrenergic Receptor (Homo sapiens, UniProt P18089).
T1 construct: expressed in transfected cells; host or cells: Y-1 cells
T1 sequence (P18089 1-450): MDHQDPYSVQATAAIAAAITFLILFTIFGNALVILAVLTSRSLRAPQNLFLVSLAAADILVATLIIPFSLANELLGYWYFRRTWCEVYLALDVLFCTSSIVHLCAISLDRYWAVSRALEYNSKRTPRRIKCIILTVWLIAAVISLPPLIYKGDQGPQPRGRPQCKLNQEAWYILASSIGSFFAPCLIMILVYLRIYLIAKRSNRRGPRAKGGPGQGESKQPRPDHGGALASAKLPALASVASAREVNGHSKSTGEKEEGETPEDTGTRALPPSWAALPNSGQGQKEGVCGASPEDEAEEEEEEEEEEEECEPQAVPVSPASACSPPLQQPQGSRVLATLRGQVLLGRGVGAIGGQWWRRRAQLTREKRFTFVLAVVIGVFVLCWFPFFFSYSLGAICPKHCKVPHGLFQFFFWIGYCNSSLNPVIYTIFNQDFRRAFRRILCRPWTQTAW
Kind of test: Equilibrium competition binding, [3H] rauwolscine, membranes of transfected Y-1 cells.

Test [2] deals with T2, α1A Human Adrenergic Receptor (Homo sapiens, UniProt P25100).
T2 construct: expressed in transfected cells; host or cells: LM(tk-) cells
T2 sequence (P25100 1-572): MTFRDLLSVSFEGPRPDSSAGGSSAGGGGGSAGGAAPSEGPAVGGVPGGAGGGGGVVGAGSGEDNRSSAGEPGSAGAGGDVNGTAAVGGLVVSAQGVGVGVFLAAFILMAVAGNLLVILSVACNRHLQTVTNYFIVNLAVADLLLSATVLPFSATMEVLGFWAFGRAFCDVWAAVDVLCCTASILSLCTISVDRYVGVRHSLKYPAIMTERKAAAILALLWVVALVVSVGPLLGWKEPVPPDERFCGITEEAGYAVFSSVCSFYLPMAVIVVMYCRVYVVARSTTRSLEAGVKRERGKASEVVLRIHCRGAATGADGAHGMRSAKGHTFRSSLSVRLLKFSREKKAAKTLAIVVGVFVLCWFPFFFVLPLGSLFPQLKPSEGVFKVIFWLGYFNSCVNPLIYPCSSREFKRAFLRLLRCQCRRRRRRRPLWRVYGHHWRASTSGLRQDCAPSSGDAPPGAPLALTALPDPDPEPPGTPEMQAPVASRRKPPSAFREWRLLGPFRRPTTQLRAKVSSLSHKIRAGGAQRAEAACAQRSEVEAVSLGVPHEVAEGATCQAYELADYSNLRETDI
In words: Equilibrium competition binding, [3H] prazosin, membranes of transfected LM(tk-) cells. As to the method: (§1) Binding and functional assays were performed using stably transfected human alpha adrenergic receptors. Equilibrium competition binding assays were performed with membrane preparations from cultured LM(tk-) cells stably transfected with the cloned human adrenoceptor subtypes except for α2b, which was expressed in Y-1 cells, using [^3H] prazosin for α1 receptors and [^3H] rauwolscine for α2 receptors.
(§2) Transfected cells from culture flasks were scraped into 5 ml of 5 mM Tris-HCl, 5 mM EDTA, pH 7.5, and lysed by sonication. The cell lysates were centrifuged at 1000 rpm for 5 min at 4° C., and the supernatant was centrifuged at 30,000×g for 20 min at 4° C. The pellet was suspended in 50 mM Tris-HCl, 1 mM MgCl2, and 0.1% ascorbic acid at pH 7.5. Binding of α2 antagonist [^3H] rauwolscine ([…]) to membrane preparations of LM(tk-) cells was done in a final volume of 0.25 ml and incubated at 37° C. for 20 min. Nonspecific binding was determined in the presence of 10 μM phentolamine. The reaction was stopped by filtration through GF/B filters using a cell harvester.
Stable cell lines were selected as described above.

The target of test [3] is T3, α1B Human Adrenergic Receptor (Homo sapiens, UniProt P35368).
T3 construct: The entire coding region of α1B(1563 bp); expressed in transfected cells; host or cells: LM(tk-) cells
T3 sequence (P35368 1-520): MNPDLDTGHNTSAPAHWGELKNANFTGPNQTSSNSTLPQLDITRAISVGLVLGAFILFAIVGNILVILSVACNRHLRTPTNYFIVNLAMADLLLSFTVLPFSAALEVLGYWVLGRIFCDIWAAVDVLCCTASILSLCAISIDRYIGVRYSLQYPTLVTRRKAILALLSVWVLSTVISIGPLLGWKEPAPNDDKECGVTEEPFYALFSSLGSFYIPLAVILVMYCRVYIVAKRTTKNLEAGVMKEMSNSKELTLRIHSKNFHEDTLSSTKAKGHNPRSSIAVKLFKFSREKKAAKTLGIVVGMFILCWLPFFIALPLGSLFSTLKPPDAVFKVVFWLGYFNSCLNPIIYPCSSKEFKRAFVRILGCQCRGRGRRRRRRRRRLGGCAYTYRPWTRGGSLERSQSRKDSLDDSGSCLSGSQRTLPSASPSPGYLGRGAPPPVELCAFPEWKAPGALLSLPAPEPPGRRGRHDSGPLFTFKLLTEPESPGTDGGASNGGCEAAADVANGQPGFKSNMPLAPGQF
The description is as above. How it is done:
as §1, §2
The construct involved ligating the full-length containing EcoRI brainstem cDNA fragment from ZapII into the expression vector. The stable cell lines were selected as described above.

Test [4] concerns the target T4, α1C Human Adrenergic Receptor (Homo sapiens, UniProt P35348).
T4 construct: expressed in transfected cells; host or cells: LM(tk-) cells
T4 sequence (P35348 1-466): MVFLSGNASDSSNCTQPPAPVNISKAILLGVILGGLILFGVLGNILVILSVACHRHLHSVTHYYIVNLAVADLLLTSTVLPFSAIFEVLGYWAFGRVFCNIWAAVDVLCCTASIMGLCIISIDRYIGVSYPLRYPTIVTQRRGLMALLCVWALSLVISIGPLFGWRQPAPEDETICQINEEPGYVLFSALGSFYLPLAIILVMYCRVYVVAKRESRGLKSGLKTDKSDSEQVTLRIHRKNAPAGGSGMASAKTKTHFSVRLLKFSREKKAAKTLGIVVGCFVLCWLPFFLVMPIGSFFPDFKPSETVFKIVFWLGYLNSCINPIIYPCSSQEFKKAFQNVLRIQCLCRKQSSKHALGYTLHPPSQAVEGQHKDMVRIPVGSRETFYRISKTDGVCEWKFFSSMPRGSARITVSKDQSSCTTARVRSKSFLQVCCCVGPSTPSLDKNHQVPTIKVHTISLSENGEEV
Described as above. How it is done:
as §1, §2
The construct involved ligation three partial overlapping fragments: a 5′ 0.6 kb HincII genomic clone, a central 1.8 EcoRI hippocampal cDNA clone, and a 3′ 0.6 Kb PstI genomic clone. The hippocampal cDNA fragment overlaps with the 5′ and 3′ genomic clones so that the HincII and PstI sites at the 5 and 3′ ends of the cDNA clone, respectively, were utilized for ligation. This full-length clone was cloned into the KpnI site of the expression vector, using the 5′ and 3′ KpnI sites of the fragment, derived from vector (i.e., pBluescript) and 3′-untranslated sequences, respectively. Stable cell lines were selected as described above.

The target of test [5] is T5, α2C Human Adrenergic Receptor (Homo sapiens, UniProt P18825).
T5 sequence (P18825 1-462): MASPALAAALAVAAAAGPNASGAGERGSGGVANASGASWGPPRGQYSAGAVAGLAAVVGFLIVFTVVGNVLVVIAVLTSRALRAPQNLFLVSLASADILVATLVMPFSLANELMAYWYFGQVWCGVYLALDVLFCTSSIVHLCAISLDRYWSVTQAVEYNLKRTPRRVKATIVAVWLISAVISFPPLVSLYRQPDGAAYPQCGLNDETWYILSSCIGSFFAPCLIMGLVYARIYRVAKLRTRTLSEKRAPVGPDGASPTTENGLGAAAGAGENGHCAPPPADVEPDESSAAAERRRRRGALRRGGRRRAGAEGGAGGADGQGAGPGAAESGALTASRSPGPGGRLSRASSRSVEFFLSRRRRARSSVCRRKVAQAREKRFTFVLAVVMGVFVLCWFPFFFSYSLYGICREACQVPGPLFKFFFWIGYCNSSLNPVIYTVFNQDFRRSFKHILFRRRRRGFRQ
Kind of test: Equilibrium competition binding, [3H] rauwolscine, membranes of transfected LM(tk-) cells.

[6] abbreviates: cloned human receptor, [3H] rauwolscine, read-out: pKi Alpha-2 B (converted).
Where [7] appears, read: cloned human receptor, [3H] prazosin, read-out: pKi Alpha-1 B (converted).
Setting [8] is: cloned human receptor, [3H] prazosin, read-out: pKi Alpha-1 C (converted).
The mark [9] stands for this setting: cloned human receptor, [3H] prazosin, read-out: pKi Alpha-1 A (converted).

Read-outs that look alike come from different tables or passages of the source.

`CC(C)n1cnc2ccc(NC3=NCCN3)cc21` [Example 20, 3-Isopropyl-5-(2-imidazolin-2-ylamino)Benzimidazole]: the Ki in test [1] (setting [6]) was 724 nM; in test [2], 14800 nM; in test [3] (setting [7]) it was 58900 nM; in test [4] (setting [8]), 11200 nM; in test [5], 631 nM.
`CC(C)n1cnc2c(Br)c(NC3=NCCN3)ccc21` [Example 18, 1-Isopropyl-4-bromo-5-(2-imidazolin-2-ylamino)Benzimidazole]: the Ki was 372 nM in test [1]; 2690 nM in test [2]; 20000 nM in test [3] (setting [7]); 891 nM in test [4] (setting [8]); 282 nM in test [5].
For `Brc1c(NC2=NCCN2)ccc2c1ncn2Cc1ccccc1` [Example 33, 1-Benzyl-4-bromo-5-(2-imidazolin-2-ylamino)Benzimidazole], the Ki was 13.8 nM in test [1] (setting [6]); 1820 nM in test [2] (setting [9]); 33100 nM in test [3] (setting [7]); 1450 nM in test [4] (setting [8]); 162 nM in test [5].
On to `c1cc2c(cc1NC1=NCCN1)ncn2C1CCCC1` [Example 25, 1-Cyclopentyl-5-(2-imidazolin-2-ylamino)Benzimidazole], for which the Ki is 646 nM in test [1]; 6170 nM in test [2]; 44700 nM in test [3] (setting [7]); 9770 nM in test [4] (setting [8]); 437 nM in test [5].
`CCCn1cnc2ccc(NC3=NCCN3)cc21` [Example 15, 3-Propyl-5-(2-imidazolin-2-ylamino)Benzimidazole]: the Ki in test [1] (setting [6]) is 724 nM; in test [2], 6460 nM; in test [3] (setting [7]), 34700 nM; in test [4] (setting [8]), 4900 nM; in test [5], 871 nM.
Consider `c1cc2c(cc1NC1=NCCN1)ncn2CC1CCCCC1` [Example 29, 1-Cyclohexylmethyl-5-(2-imidazolin-2-ylamino)Benzimidazole], for which the Ki in test [1] (setting [6]) is 363 nM; in test [2] (setting [9]), 912 nM; in test [3] (setting [7]) it was 20900 nM; in test [4] (setting [8]), 1410 nM; in test [5], 490 nM.
As for `OCCn1cnc2ccc(NC3=NCCN3)c(Br)c21` [Example 39, 3-(2-Hydroxyethyl)-4-bromo-5-(2-imidazolin-2-ylamino)Benzimidazole], the Ki in test [1] (setting [6]) was 490 nM; in test [2] it was 1580 nM; in test [3], 11000 nM; in test [4], 4790 nM; in test [5], 617 nM.
Turning to `Cn1cnc2ccc(NC3=NCCN3)cc21` [Example 11, 3-Methyl-5-(2-imidazolin-2-ylamino)Benzimidazole], the Ki in test [1] was 224 nM; in test [2], 10000 nM; in test [3] (setting [7]) it was 35500 nM; in test [4] (setting [8]) it was 5750 nM; in test [5] it was 1120 nM.
With `c1ccc(Cn2cnc3ccc(NC4=NCCN4)cc32)cc1` [Example 34, 3-Benzyl-5-(2-imidazolin-2-ylamino)Benzimidazole], the Ki in test [1] (setting [6]) is 89.1 nM; in test [2] it was 2570 nM; in test [3], 12000 nM; in test [4], 1350 nM; in test [5], 186 nM.
The corresponding values for `Brc1c(NC2=NCCN2)ccc2ncn(CC3CCCCC3)c12` [Example 31, 3-Cyclohexylmethyl-4-bromo-5-(2-imidazolin-2-ylamino)Benzimidazole] are 37.2 nM, 257 nM, 2140 nM, 372 nM and 38.9 nM.
`Brc1c(NC2=NCCN2)ccc2ncn(C3CCCC3)c12` [Example 28, 3-Cyclopentyl-4-bromo-5-(2-imidazolin-2-ylamino)Benzimidazole]: the Ki in test [1] (setting [6]) was 41.7 nM; in test [2] it was 661 nM; in test [3], 10500 nM; in test [4] it was 3800 nM; in test [5], 95.5 nM.
`CC(C)n1cnc2cc(NC3=NCCN3)ccc21` [Example 17, 1-Isopropyl-5-(2-imidazolin-2-ylamino)Benzimidazole]: the Ki was 661 nM in test [1]; 10500 nM in test [2]; 44700 nM in test [3]; 9120 nM in test [4] (setting [8]); 832 nM in test [5].
Consider `c1ccc(Cn2cnc3cc(NC4=NCCN4)ccc32)cc1` [Example 32, 1-Benzyl-5-(2-imidazolin-2-ylamino)Benzimidazole], for which the Ki is 50.1 nM in test [1] (setting [6]); 3720 nM in test [2]; 33100 nM in test [3]; 3890 nM in test [4]; 162 nM in test [5].
